This is an account of results in patent US8263656B2 (Hoffmann-La Roche Inc., priority 2008, dated 2012).

For this test, the target named is T1, human CRTH2 (Homo sapiens, UniProt Q9Y5Y4).
T1 construct: expressed in transfected cells
T1 sequence (Q9Y5Y4 1-395): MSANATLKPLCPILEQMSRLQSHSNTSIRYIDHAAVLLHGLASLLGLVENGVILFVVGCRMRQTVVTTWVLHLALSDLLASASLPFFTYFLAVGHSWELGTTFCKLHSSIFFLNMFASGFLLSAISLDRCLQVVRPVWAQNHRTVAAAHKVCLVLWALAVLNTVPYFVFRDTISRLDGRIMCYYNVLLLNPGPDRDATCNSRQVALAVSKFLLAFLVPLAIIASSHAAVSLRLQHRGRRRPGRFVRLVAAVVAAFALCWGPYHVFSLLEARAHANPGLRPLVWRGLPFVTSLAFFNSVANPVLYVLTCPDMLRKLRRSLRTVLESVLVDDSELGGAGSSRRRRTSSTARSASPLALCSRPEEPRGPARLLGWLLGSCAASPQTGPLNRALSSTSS
In words: Human CRTH2 Receptor Binding Assay (whole cell, [3H]ramatroban competition). The note with it: CHO-K1 cells expressing human CRTH2 and G-alpha16; 20 nM [3H]ramatroban; 1 hour, room temperature. The text has this:
A whole cell receptor binding assay using [^3H]ramatroban as the competing radioactive ligand was employed to evaluate the compound binding activity to human CRTH2. The radioactive ligand [^3H]ramatroban was synthesized according to Sugimoto et. al. (Eur. J. Pharmacol. 524, 30-37, 2005) to a specific activity of 42 Ci/mmol.
A cell line stably expressing human CRTH2 was established by transfecting CHO-K1 cells with two mammalian expression vectors that harbored human CRTH2 and G-alpha16 cDNAs, respectively, using FuGene® 6 transfection reagent (from Roche). Stable clones expressing CRTH2 were selected by staining each clone with BM16 (BD Pharmingen™ from BD Biosciences, a division of Becton, Dickinson and Company), which is a rat monoclonal antibody to human CRTH2. The cells were maintained as monolayer cultures in Ham's F-12 medium containing 10% fetal bovine serum, 100 units/mL penicillin, […] streptomycin, 2 mM glutamine, 0.5 mg/mL G418 (geneticin) for CRTH2, and 0.2 mg/mL hygromycin-B (for G-alpha 16). For whole cell receptor binding assay, the monolayer cells were rinsed once with PBS (phosphate buffered saline), dissociated using diammonium ethylenediaminetetraacetate (Versene™ EDTA from the Dow Chemical Company), and suspended in PBS containing 10 mM MgCl2 and 0.06% BSA (bovine serum albumin) at 1.5×10^6 cells/mL.
The binding reactions (0.2 mL) were performed in 96-well plates at room temperature in PBS containing 1.5×10^5 cells, 10 mM MgCl2, 0.06% BSA, 20 nM [^3H]ramatroban, and test compound at various concentrations. After 1 hour of binding reactions, the cells were harvested on GF™/B filter microplates (microtiter plates with embedded glass fiber from PerkinElmer, Inc.) and washed 5 times with PBS using a Filtermate™ Harvester (a cell harvester that harvests and washes cells from microplates from PerkinElmer, Inc.). The radioactivities bound to the cells were determined using a microplate scintillation counter (TopCount® NXT, from PerkinElmer, Inc.) after adding 50 μL of Microscint™ 20 scintillation fluid (from PerkinElmer, Inc.) to each well of the filter plates. The radioactivity from non-specific binding was determined by replacing compound with 10 μM of 15(R)-15-methyl PGD2 (from Cayman Chemical Company) in the reaction mixtures. The radioactivity bound to the cells in the absence of compound (total binding) was determined by replacing compound with 0.25% of DMSO (dimethyl sulfoxide) in the reaction mixture. Specific binding data were obtained by subtracting the radioactivity of non-specific binding from each binding data.
The IC50 value is defined as the concentration of the tested compound that is required for 50% inhibition of total specific binding. In order to calculate the IC50 value, the percent inhibition data were determined for 7 concentrations for each compound. The percent inhibition for a compound at each concentration was calculated according to the following formula, [1-(specific binding in the presence of compound)/(total specific binding)]×100. The IC50 value was then obtained by fitting the percent inhibition data to a sigmoidal dose-response (4 parameter logistic) model in the XLfit® software Excel add-in program [from ID Business Solutions Ltd., model 205, where F(x)=(A+(B−A)/(1+((C/x)^D)))].
Take `CN(C1CCCc2c1cc(Cl)c(Cl)c2OCC(=O)O)S(=O)(=O)c1cc(C(F)(F)F)cc(C(F)(F)F)c1` (centres unmarked) [Example 2-7, {5-[(3,5-Bis-trifluoromethyl-benzenesulfonyl)-methyl-amino]-2,3-dichloro-5,6,7,8-tetrahydro-naphthalen-1-yloxy}-acetic acid]: the 50% inhibitory concentration (IC50) – broadly, the midpoint of a concentration-inhibition curve – turned out to be 333 nM.

Compound `O=C(O)COc1c(F)c(Cl)cc2c1CCC[C@H]2NS(=O)(=O)c1cc(C(F)(F)F)cc(C(F)(F)F)c1` [Example 1-1, [(R)-5-(3,5-Bis-trifluoromethyl-benzenesulfonylamino)-3-chloro-2-fluoro-5,6,7,8-tetrahydro-naphthalen-1-yloxy]-acetic acid] returned an IC50 of 2.4 nM.

Compound `Cc1c(Cl)cc2c(c1OCC(=O)O)CCCC2NS(=O)(=O)c1cc(C(F)(F)F)cc(C(F)(F)F)c1` (centres unmarked) [Example 1-5, [5-(3,5-Bis-trifluoromethyl-benzenesulfonyl-amino)-3-chloro-2-methyl-5,6,7,8-tetrahydro-naphthalen-1-yloxy]-acetic acid] came in with an IC50 of 28.4 nM.

In the case of `O=C(O)COc1c(F)c(Cl)cc2c1CCC[C@H]2NS(=O)(=O)c1cc(F)cc(C(F)(F)F)c1` [Example 1-38, [(R)-3-Chloro-2-fluoro-5-(3-fluoro-5-trifluoromethyl-benzenesulfonyl-amino)-5,6,7,8-tetrahydro-naphthalen-1-yloxy]-acetic acid], the IC50 stood at 3.4 nM.

Turning to `CN(C1CCCc2c1cc(F)c(F)c2OCC(=O)O)S(=O)(=O)c1cc(Cl)ccc1Cl` (centres unmarked) [Example 2-21, {5-[(2,5-Dichloro-benzenesulfonyl)-methyl-amino]-2,3-difluoro-5,6,7,8-tetrahydro-naphthalen-1-yloxy}-acetic acid], the 50% inhibitory concentration (IC50) was 2100 nM.

On to `Cc1c(Cl)cc2c(c1OCC(=O)O)CCCC2N(C)S(=O)(=O)c1cc(C(F)(F)F)cc(C(F)(F)F)c1` (centres unmarked) [Example 2-8, {5-[(3,5-Bis-trifluoromethyl-benzenesulfonyl)-methyl-amino]-3-chloro-2-methyl-5,6,7,8-tetrahydro-naphthalen-1-yloxy}-acetic acid], for which the concentration for half-maximal inhibition (IC50) came out at 638 nM.

`O=C(O)COc1c(F)c(F)cc2c1CCCC2NS(=O)(=O)c1ccc(Cl)cc1Cl` (centres unmarked) [Example 1-30, [5-(2,4-Dichloro-benzenesulfonyl-amino)-2,3-difluoro-5,6,7,8-tetrahydro-naphthalen-1-yloxy]-acetic acid] registered a concentration for half-maximal inhibition (IC50) of 46.1 nM.

For `CN(C1CCCc2c1cc(Cl)c(F)c2OCC(=O)O)S(=O)(=O)c1cc(Cl)ccc1Cl` (centres unmarked) [Example 2-9, {3-Chloro-5-[(2,5-dichloro-benzenesulfonyl)-methyl-amino]-2-fluoro-5,6,7,8-tetrahydro-naphthalen-1-yloxy}-acetic acid], the IC50 amounted to 1160 nM.

The compound `O=C(O)COc1cc(Cl)cc2c1CCCC2NS(=O)(=O)c1cc(F)cc(C(F)(F)F)c1` (centres unmarked) [Example 1-16, [3-Chloro-5-(3-fluoro-5-trifluoromethyl-benzenesulfonyl-amino)-5,6,7,8-tetrahydro-naphthalen-1-yloxy]-acetic acid] gave an IC50 of 3.8 nM.

As to `O=C(O)COc1c(F)c(F)cc2c1CCCC2NS(=O)(=O)c1cc(F)cc(C(F)(F)F)c1` (centres unmarked) [Example 1-26, [2,3-Difluoro-5-(3-fluoro-5-trifluoromethyl-benzenesulfonyl-amino)-5,6,7,8-tetrahydro-naphthalen-1-yloxy]-acetic acid], the concentration for half-maximal inhibition (IC50) is 42.2 nM.

The compound `O=C(O)COc1cc(Cl)cc2c1CCC[C@H]2NS(=O)(=O)c1cc(Cl)ccc1Cl` [Example 1-43, [(R)-3-Chloro-5-(2,5-dichloro-benzenesulfonyl-amino)-5,6,7,8-tetrahydro-naphthalen-1-yloxy]-acetic acid] had an IC50 of 10.9 nM.

`O=C(O)COc1c(F)c(Cl)cc2c1CCCC2NS(=O)(=O)c1cc(Br)cc(C(F)(F)F)c1` (centres unmarked) [Example 1-15, [5-(3-Bromo-5-trifluoromethyl-benzenesulfonyl-amino)-3-chloro-2-fluoro-5,6,7,8-tetrahydro-naphthalen-1-yloxy]-acetic acid] came in with an IC50 of 8 nM.

`O=C(O)COc1c(F)c(Cl)cc2c1CCC[C@H]2NS(=O)(=O)c1ccc(Cl)cc1Cl` [Example 1-40, [(R)-3-Chloro-5-(2,4-dichloro-benzenesulfonyl-amino)-2-fluoro-5,6,7,8-tetrahydro-naphthalen-1-yloxy]-acetic acid] had an IC50 of 6.3 nM.

Consider `O=C(O)COc1cc(Br)cc2c1CCC[C@H]2NS(=O)(=O)c1cc(Br)cc(C(F)(F)F)c1` [Example 1-37, [(R)-3-Bromo-5-(3-bromo-5-trifluoromethyl-benzenesulfonyl-amino)-5,6,7,8-tetrahydro-naphthalen-1-yloxy]-acetic acid], for which the half-maximal inhibitory concentration (IC50) came out at 2.8 nM.

In turn, `CN(C1CCCc2c(OCC(=O)O)cc(F)cc21)S(=O)(=O)c1cc(Cl)ccc1Cl` (centres unmarked) [Example 2-19, {55-[(2,5-Dichloro-benzenesulfonyl)-methyl-amino]-3-fluoro-5,6,7,8-tetrahydro-naphthalen-1-yloxy}-acetic acid] came in with an IC50 of 2640 nM.

Turning to `CN(C1CCCc2c(OCC(=O)O)cc(Cl)cc21)S(=O)(=O)c1cc(F)cc(C(F)(F)F)c1` (centres unmarked) [Example 2-14, {3-Chloro-5-[(3-fluoro-5-trifluoromethyl-benzenesulfonyl)-methyl-amino]-5,6,7,8-tetrahydro-naphthalen-1-yloxy}-acetic acid], the concentration for half-maximal inhibition (IC50) was 11.2 nM.

The compound `CN(C1CCCc2c1cc(Cl)c(F)c2OCC(=O)O)S(=O)(=O)c1cc(C(F)(F)F)cc(C(F)(F)F)c1` (centres unmarked) [Example 2-1, {5-[(3,5-Bis-trifluoromethyl-benzenesulfonyl)-methyl-amino]-3-chloro-2-fluoro-5,6,7,8-tetrahydro-naphthalen-1-yloxy}-acetic acid] had an IC50 of 8 nM.

In turn, `O=C(O)COc1c(Cl)ccc2c1CCC[C@H]2NS(=O)(=O)c1cc(C(F)(F)F)cc(C(F)(F)F)c1` [Example 1-25, [(R)-5-(3,5-Bis-trifluoromethyl-benzenesulfonyl-amino)-2-chloro-5,6,7,8-tetrahydro-naphthalen-1-yloxy]-acetic acid] came in with an IC50 of 95.9 nM.

The compound `CN(C1CCCc2c1cc(F)c(F)c2OCC(=O)O)S(=O)(=O)c1cc(F)cc(C(F)(F)F)c1` (centres unmarked) [Example 2-24, {2,3-Difluoro-5-[(3-fluoro-5-trifluoromethyl-benzenesulfonyl)-methyl-amino]-5,6,7,8-tetrahydro-naphthalen-1-yloxy}-acetic acid] displayed a concentration for half-maximal inhibition (IC50) of 380 nM.

Take `O=C(O)COc1cc(Cl)cc2c1CCCC2NS(=O)(=O)c1cc(C(F)(F)F)cc(C(F)(F)F)c1` (centres unmarked) [Example 1-6]: the IC50 was 5.8 nM.

Consider `O=C(O)COc1c(F)c(Cl)cc2c1CCCC2NS(=O)(=O)c1ccc(Cl)cc1Cl` (centres unmarked) [Example 1-14], for which the concentration for half-maximal inhibition (IC50) amounted to 7.7 nM.

As for `CN(C1CCCc2c(OCC(=O)O)cc(F)cc21)S(=O)(=O)c1cc(F)cc(C(F)(F)F)c1` (centres unmarked) [Example 2-23, {3-Fluoro-5-[(3-fluoro-5-trifluoromethyl-benzenesulfonyl)-methyl-amino]-5,6,7,8-tetrahydro-naphthalen-1-yloxy}-acetic acid], the IC50 came to 198 nM.

`Cc1ccc2c(c1OCC(=O)O)CCCC2NS(=O)(=O)c1cc(C(F)(F)F)cc(C(F)(F)F)c1` (centres unmarked) [Example 1-3, [5-(3,5-Bis-trifluoromethyl-benzenesulfonyl-amino)-2-methyl-5,6,7,8-tetrahydro-naphthalen-1-yloxy]-acetic acid] yielded an IC50 of 147 nM.
